Tests used:
[1] = Peak depolarizations produced by injections of 100 micro M Ins p3 isomers in nine cells; type: cell-based
[2] = Peak depolarizations produced by injections of 100 micro M Ins p3 isomers in six cells; type: cell-based

Question: Which Depolarisation [1] does the source give for `O=P(O)(O)OC1C(O)C(O)C(OP(=O)(O)O)C(OP(=O)(O)O)C1O` (stereo in doubt; form 1) [INOSITOL (1,4,5) (PHOSPHATE)3] here?
Answer: 24 mV

Question: Which Depolarisation [2] does the source give for `O=P(O)(O)OC1C(O)C(O)C(OP(=O)(O)O)C(OP(=O)(O)O)C1O` (stereo in doubt; form 3) [INOSITOL (1,4,5) (PHOSPHATE)3] here?
Answer: 3.4 mV

Question: What about the Depolarisation [1] of the same molecule?
Answer: 5.7 mV

Question: For `O=P(O)(O)OC1C(O)C(O)C(OP(=O)(O)O)C(OP(=O)(O)O)C1O` (stereo in doubt; form 2) [INOSITOL (1,4,5) (PHOSPHATE)3], which Depolarisation [2] is on record?
Answer: 32.5 mV

From ChEMBL document CHEMBL1127407, “Unambiguous total synthesis of the enantiomers of myo-inositol 1,3,4-trisphosphate: 1L-myo-inositol 1,3,4-trisphosphate mobilizes intracellular Ca2+ in Limulus photoreceptors” (J Med Chem, 1994)
